Tests used:
YUMMER1.7 melanomas = assay: YUMMER1.7 melanoma in mice, beta-blocker alone or with ICB; format: in vivo; settings: for cytokine production by CD8+ T cells: combination with ICB, tumor CD8+ T cells stimulated with PMA/ionomycin
PDAC tumors = assay: Orthotopic PDAC (6419c5) in mice, beta-blocker alone or with ICB; format: in vivo; settings: for tumor growth: agent alone; for tumor growth (abdominal ultrasound volume and tumor mass): in combination with ICB (anti-PD-1 + anti-CTLA-4)
ADRB1 = ADRB1 (Mus musculus, UniProt P34971); design: dose or concentration left out as unconfirmed; settings: Adrb1 OE P14+ cells vs empty vector; for CD8+ T cell cytokine production: gp33 stimulation; for CD8+ T cell proliferation: up to 6 days of culture
LCMV-clone 13 = format: in vivo, mice
ADRB1 vs. ADRB2 = settings: relative to β1; cited from earlier work
[1] = system: CD8+ T cells in PDAC tumors; assay: scRNA Seq of tumor infiltrating T cells from PDAC tumors; format: in vivo, mice
Description: For scRNA Seq of PDAC tumors 4 tumors each per treatment condition were pooled and stained for sorting. The following cell populations were sorted into RPMI supplemented with 20% fetal bovine serum: Thy1.2^+ CD45.2^+ (T cells), Thy1.2^− CD45.2^+ (Non T cell leukocytes), YFP^+ CD45.2^− (tumor cells). Sorted cells were spun down at 420 rcf at 4° C. for 4 minutes, resuspended in PBS+2% fetal bovine serum and mixed at 8 k Thy1.2^+ CD45.2^+, 10 k Thy1.2^− CD45.2^+, 2 k YFP^+ CD45.2^− for a total of 20 k cells per sample.
Samples were then loaded onto Chromium Chip G (10× Genomics) and partitioned into Gel Bead-in-Emulsions using a chromium controller (10× Genomics). Single cell RNA libraries were generated following the manufacturer's instructions of the Chromium Next GEM Single Cell 3′ Reagent Kit v3.1 (10× Genomics) followed by sequencing on a NovaSeq6000 at the NGS Core of the Salk Institute. Cellranger count was used to align reads to the mm10 genome and YFP. The resulting counts matrix was then processed using the R package scran^54 and outlying cells identified with quickPerCellQC (stats, percent_subsets=“subsets_Mito_percent”) were discarded. Data was log normalized using quickCluster, computeSumFactors and logNormCounts. The top 10% most variable genes were calculated using modelGeneVarByPoisson and getTopHVGs and then used in the PCA calculation using denoisePCA. The top 50 principal components were used to calculate a UMAP dimensional reduction using the runUMAP function (metric=“cosine”, min_dist=0.3 and n_neighbors=30). Leiden clustering was performed with igraph's cluster_leiden (with resolution=0.05) after running buildSNNGraph (with k=25). Cell types were annotated using SingleR^55 and the ImmGenData labels as a reference using default parameters. For further analysis the dataset was filtered on T cells according to the SingleR labels and variable genes, PCA and UMAP were calculated with the same settings described above. Clustering of T cells was performed using cluster_leiden with the resolution set to 1.8. For visualization, data imputation was performed using MAGIC^56 using the exact solver. To assign biological relevance to the T cell clusters, a heatmap of the median log normalized expression (using aggregateAcrossCells) of selected markers was generated and visualized using ComplexHeatmap^57. Differential genes for the clusters were identified by performing pairwise comparison of one cluster against all other clusters using the findMarkers function (test.type=“binom”, lfc=0.1, direction=“up”). Gene signatures for T cell exhaustion and TRn cells were obtained from Wherry et al and Milner et al respectively^45,58 in addition to the MSigDB hallmark gene sets. Gene signature scores were calculated using AUCell^59 (aucMaxRank set to 5%). […]

[2] = gp33+ CD8+ T cells, d37 p.i., vs untreated

ADRB1, sequence (P34971 whole entry): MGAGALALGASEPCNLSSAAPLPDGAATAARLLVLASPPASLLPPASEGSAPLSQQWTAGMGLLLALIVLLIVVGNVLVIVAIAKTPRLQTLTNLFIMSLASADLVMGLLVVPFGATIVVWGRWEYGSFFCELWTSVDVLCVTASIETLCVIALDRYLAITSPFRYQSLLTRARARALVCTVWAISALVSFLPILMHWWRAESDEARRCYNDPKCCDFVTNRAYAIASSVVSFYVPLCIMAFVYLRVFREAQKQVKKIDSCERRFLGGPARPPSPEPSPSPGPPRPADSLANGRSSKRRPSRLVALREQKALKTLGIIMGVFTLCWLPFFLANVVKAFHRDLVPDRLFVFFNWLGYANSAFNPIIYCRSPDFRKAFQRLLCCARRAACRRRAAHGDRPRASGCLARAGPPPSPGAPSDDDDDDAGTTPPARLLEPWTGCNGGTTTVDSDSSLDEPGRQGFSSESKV

## Cn1cc(C(F)(F)F)nc1-c1ccc(OCC(O)CNCCOc2ccc(O)c(C(N)=O)c2)cc1 (stereo not shown) [CGP 20712A]
YUMMER1.7 melanomas
  cytokine production by CD8+ T cells: significantly increased

## Cc1ccc(OCC(O)C(C)NC(C)C)c2c1CCC2 (stereo not shown) [ICI 11855135]
PDAC tumors
  tumor growth: failed to suppress tumor growth
  tumor growth (abdominal ultrasound volume and tumor mass): failed to suppress tumor growth

## CNCC(O)c1ccc(O)c(O)c1 (stereo not shown) [adrenaline]
ADRB1
  CD8+ T cell cytokine production: impairs
  CD8+ T cell proliferation: impairs

## CC(C)NCC(O)COc1ccc(CC(N)=O)cc1 (stereo not shown) [atenolol]
LCMV-clone 13; after gp33 stimulation for 6 h, d37 p.i., vs untreated
  frequencies of IFNγ-, TNF- and GZMB-producing virus-specific CD8+ T cells: higher frequencies
LCMV-clone 13; atenolol 0.5 mg/ml in drinking water throughout infection vs untreated, spleen, d37 p.i.
  expansion of virus-specific CD8+ T cells that displayed features of TEXprog, at the expense of TEXeff and TEXterm: greater expansion
LCMV-clone 13; [2]
  amounts of CREM in virus-specific CD8+ T cells: lowered
  amounts of cAMP in virus-specific CD8+ T cells: lowered
LCMV-clone 13; serum of LCMV-clone 13-infected mice, vs untreated
  viral titers: lower viral titers
YUMMER1.7 melanomas; beta-blocker alone vs IgG, YUMMER tumors
  tumor cell proliferation (tumor expression of Ki67 relative to IgG, IHC): does not directly affect tumor cell proliferation
YUMMER1.7 melanomas; combination with ICB (anti-PD-1 + anti-CTLA-4)
  effects on differentiation of exhausted T cells: did not extend beyond those of the checkpoint therapy alone
YUMMER1.7 melanomas; combination with ICB (anti-PD-1 + anti-CTLA-4), compared to untreated or beta-blocker alone
  tumor size (normalized tumor mass relative to IgG control): significantly smaller
YUMMER1.7 melanomas
  cytokine production by CD8+ T cells: dramatically increased
PDAC tumors
  tumor growth: failed to suppress tumor growth
  tumor growth (abdominal ultrasound volume and tumor mass): failed to suppress tumor growth
ADRB1 vs. ADRB2
  block of the β2-adrenergic receptor: to a lower degree

## NC[C@H](O)c1ccc(O)c(O)c1 [noradrenaline]
ADRB1
  CD8+ T cell cytokine production: impairs
  CD8+ T cell proliferation: impairs

## CC(C)NCC(O)COc1cccc2ccccc12 (stereo not shown) [propranolol]
PDAC tumors; beta-blocker alone vs IgG, PDAC tumors
  tumor cell proliferation (tumor expression of Ki67 relative to IgG, IHC): does not directly affect tumor cell proliferation
PDAC tumors; combination with ICB
  CD8+ T cells in the tumors: increase
PDAC tumors; combination with ICB, after PMA/ionomycin stimulation
  production of IFNγ and GZMB: increased production
PDAC tumors; combination with ICB, tumor CD8+ T cells
  expression of the activation/exhaustion markers PD-1 and TIM3: higher expression
PDAC tumors
  tumor growth (abdominal ultrasound volume and tumor mass): significantly reduced
[1]; combination treatment with ICB
  T cell clusters 1 and 5 (TRM-like and exhausted CD8+ T cells): enriched
  cytokine and chemokine production (Gzma, Tgfb1, Gzmb, Xcl1, Ccl3, Ccl4, Ifng, Prf1) of CD8+ T cells: enhanced
  signatures for T cell response, exhaustion and TRM: enriched
[1]; propranolol and ICB therapy
  upregulated genes in CD8+ T cells compared to the isotype control: 272 genes
